Measurements taken from ChEMBL document CHEMBL5331134, “Identification of Brain-Penetrant ATP-Competitive mTOR Inhibitors for CNS Syndromes” (J Med Chem, 2023).
pIC50: −log10 of the molar value. ≈ marks a conversion by molar mass, not a printed value.

Assays:
[1] = target: 3',5'-cyclic-AMP phosphodiesterase 4D (Homo sapiens, UniProt Q08499); assay: Inhibition of PDE4D (unknown origin)
[2] = Apparent permeability across apical to basolateral side in MDCK-MDR1 cells; format: ADME, cell-based, Canis lupus familiaris; details: dog
[3] = Apparent permeability across basolateral to apical side in MDCK-MDR1 cells; format: ADME, cell-based, Canis lupus familiaris; details: dog
[4] = Efflux ratio of apparent permeability across basolateral to apical side over apical to basolateral side in MDCK-MDR1 cells; format: ADME, cell-based, Canis lupus familiaris; details: dog
[5] = target: T1, Serine/threonine-protein kinase mTOR (Mus musculus, UniProt Q9JLN9); assay: Inhibition of mTOR in TSC1 knockout mouse MEF cells assessed as reduction in phosphorylated S6 level at serine 240/244 residues incubated for 2 hrs by Hoechst/Alexa Fluor 647 staining based analysis; format: cell-based
[6] = target: T2, Cytochrome P450 3A4 (Homo sapiens, UniProt P08684); assay: Inhibition of CYP3A4 (unknown origin) assessed as Kobs; format: ADME
[7] = Solubility of compound at pH 6.8; format: physicochemical; details: buffer
[8] = target: Serine/threonine-protein kinase ATR (Homo sapiens, UniProt Q13535); assay: Inhibition of ATR (unknown origin)-driven CHK1 phosphorylation
[9] = target: T1, Serine/threonine-protein kinase mTOR; assay: Inhibition of mTOR in Tsc1 knockout mouse neurons assessed as reduction in phosphorylated S6 level incubated for 4 hrs by Hoechst staining based immunofluorescence analysis; format: cell-based, Neuron
[10] = Genotoxicity in human TK6 cells assessed as micronuclei formation in absence of S9 fraction measured after 20 hrs by micronucleus test; format: toxicity, cell-based; details: tk6, 20 h
[11] = Metabolic stability in dog liver microsomes assessed as intrinsic clearance at 1 uM incubated for 30 mins in presence of NADPH by LC-MS/MS analysis; format: ADME, Canis lupus familiaris, Microsome; details: read-out: CLH
[12] = target: Dual specificity tyrosine-phosphorylation-regulated kinase 1A (Homo sapiens) (UniProt Q13627); assay: Inhibition of DYRK1A (unknown origin) assessed as residual activity at 10 uM relative to control
[13] = Phototoxicity against mouse BALB/3T3 clone A31 cells assessed as photo-irradiation factor incubated for 1 hr followed by irradiated with 5 J/cm^2 of light dose measured after 24 hrs by neutral red uptake assay; format: toxicity, cell-based; details: balb/3t3 clone a31, 1 h
[14] = Genotoxicity in human TK6 cells assessed as micronuclei formation in absence of S9 fraction measured after 3 hrs by micronucleus test; format: toxicity, cell-based; details: tk6, 3 h
[15] = Genotoxicity in human TK6 cells assessed as micronuclei formation by micronucleus test; format: toxicity, cell-based
[16] = target: CYP2D6 (Homo sapiens, UniProt P10635); assay: Inhibition of CYP2D6 (unknown origin); format: ADME
[17] = Metabolic stability in cynomolgus monkey liver microsomes assessed as intrinsic clearance at 1 uM incubated for 30 mins in presence of NADPH by LC-MS/MS analysis; format: ADME, Macaca fascicularis, Microsome; details: read-out: CLH
[18] = target: CYP2C9 (Homo sapiens, UniProt P11712); assay: Inhibition of CYP2C9 (unknown origin); format: ADME
[19] = target: 1-phosphatidylinositol 3-phosphate 5-kinase (Homo sapiens) (UniProt Q9Y2I7); assay: Inhibition of PIKfyve in human U2OS cells coexpressing GFP-tagged FoxO3alpha assessed as residual activity at 10 uM incubated for 2 to 24 hrs by Hoechst staining based analysis relative to control; format: cell-based; details: time 2-24 hrs
[20] = Phototoxicity against mouse BALB/3T3 clone A31 cells assessed as reduction in cell viability incubated for 1 hr followed by irradiated with 5 J/cm^2 of light dose measured after 24 hrs by neutral red uptake assay; format: toxicity, cell-based; details: balb/3t3 clone a31, 1 h
[21] = Genotoxicity in human TK6 cells assessed as micronuclei formation in presence of S9 fraction measured after 3 hrs by micronucleus test; format: toxicity, subcellular; details: s9, 3 h
[22] = Metabolic stability in mouse liver microsomes assessed as intrinsic clearance at 1 uM incubated for 30 mins in presence of NADPH by LC-MS/MS analysis; format: ADME, Microsome; details: read-out: CLH
[23] = target: Myosin light chain kinase, smooth muscle (Homo sapiens) (UniProt Q15746); assay: Inhibition of MYLK (unknown origin) assessed as residual activity at 10 uM relative to control
[24] = target: Serine/threonine-protein kinase mTOR (Homo sapiens) (UniProt P42345); assay: Inhibition of mTOR (unknown origin) assessed as residual activity at 10 uM relative to control
[25] = Genotoxicity in human TK6 cells assessed as micronuclei formation in presence of S9 fraction measured after 20 hrs by micronucleus test; format: toxicity, subcellular; details: s9, 20 h
[26] = target: T2, Cytochrome P450 3A4; assay: Inhibition of CYP3A4 (unknown origin); format: ADME
[27] = Metabolic stability in human liver microsomes assessed as intrinsic clearance at 1 uM incubated for 30 mins in presence of NADPH by LC-MS/MS analysis; format: ADME, Microsome; details: read-out: CLH

3',5'-cyclic-AMP phosphodiesterase 4D, sequence (Q08499 whole entry): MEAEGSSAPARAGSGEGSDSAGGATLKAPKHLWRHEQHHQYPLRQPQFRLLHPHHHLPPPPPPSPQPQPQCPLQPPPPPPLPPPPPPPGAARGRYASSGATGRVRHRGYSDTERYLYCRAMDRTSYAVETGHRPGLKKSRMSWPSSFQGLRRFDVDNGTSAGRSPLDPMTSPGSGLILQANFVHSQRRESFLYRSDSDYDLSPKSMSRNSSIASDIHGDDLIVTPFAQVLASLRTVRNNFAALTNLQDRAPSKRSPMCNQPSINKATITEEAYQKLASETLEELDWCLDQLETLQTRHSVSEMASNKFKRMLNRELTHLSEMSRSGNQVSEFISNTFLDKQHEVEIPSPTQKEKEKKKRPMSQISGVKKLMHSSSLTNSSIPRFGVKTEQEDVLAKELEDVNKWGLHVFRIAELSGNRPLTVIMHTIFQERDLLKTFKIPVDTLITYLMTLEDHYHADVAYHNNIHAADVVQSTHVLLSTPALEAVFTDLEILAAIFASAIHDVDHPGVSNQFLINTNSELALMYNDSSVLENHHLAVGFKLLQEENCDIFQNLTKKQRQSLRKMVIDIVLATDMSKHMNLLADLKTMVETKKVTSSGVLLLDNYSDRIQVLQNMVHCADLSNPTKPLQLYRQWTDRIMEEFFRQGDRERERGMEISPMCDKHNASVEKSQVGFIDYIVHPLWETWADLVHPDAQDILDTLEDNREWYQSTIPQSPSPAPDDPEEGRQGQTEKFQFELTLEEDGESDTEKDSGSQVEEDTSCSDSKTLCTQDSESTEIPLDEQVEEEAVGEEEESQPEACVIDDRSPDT
Serine/threonine-protein kinase ATR, sequence (Q13535 whole entry): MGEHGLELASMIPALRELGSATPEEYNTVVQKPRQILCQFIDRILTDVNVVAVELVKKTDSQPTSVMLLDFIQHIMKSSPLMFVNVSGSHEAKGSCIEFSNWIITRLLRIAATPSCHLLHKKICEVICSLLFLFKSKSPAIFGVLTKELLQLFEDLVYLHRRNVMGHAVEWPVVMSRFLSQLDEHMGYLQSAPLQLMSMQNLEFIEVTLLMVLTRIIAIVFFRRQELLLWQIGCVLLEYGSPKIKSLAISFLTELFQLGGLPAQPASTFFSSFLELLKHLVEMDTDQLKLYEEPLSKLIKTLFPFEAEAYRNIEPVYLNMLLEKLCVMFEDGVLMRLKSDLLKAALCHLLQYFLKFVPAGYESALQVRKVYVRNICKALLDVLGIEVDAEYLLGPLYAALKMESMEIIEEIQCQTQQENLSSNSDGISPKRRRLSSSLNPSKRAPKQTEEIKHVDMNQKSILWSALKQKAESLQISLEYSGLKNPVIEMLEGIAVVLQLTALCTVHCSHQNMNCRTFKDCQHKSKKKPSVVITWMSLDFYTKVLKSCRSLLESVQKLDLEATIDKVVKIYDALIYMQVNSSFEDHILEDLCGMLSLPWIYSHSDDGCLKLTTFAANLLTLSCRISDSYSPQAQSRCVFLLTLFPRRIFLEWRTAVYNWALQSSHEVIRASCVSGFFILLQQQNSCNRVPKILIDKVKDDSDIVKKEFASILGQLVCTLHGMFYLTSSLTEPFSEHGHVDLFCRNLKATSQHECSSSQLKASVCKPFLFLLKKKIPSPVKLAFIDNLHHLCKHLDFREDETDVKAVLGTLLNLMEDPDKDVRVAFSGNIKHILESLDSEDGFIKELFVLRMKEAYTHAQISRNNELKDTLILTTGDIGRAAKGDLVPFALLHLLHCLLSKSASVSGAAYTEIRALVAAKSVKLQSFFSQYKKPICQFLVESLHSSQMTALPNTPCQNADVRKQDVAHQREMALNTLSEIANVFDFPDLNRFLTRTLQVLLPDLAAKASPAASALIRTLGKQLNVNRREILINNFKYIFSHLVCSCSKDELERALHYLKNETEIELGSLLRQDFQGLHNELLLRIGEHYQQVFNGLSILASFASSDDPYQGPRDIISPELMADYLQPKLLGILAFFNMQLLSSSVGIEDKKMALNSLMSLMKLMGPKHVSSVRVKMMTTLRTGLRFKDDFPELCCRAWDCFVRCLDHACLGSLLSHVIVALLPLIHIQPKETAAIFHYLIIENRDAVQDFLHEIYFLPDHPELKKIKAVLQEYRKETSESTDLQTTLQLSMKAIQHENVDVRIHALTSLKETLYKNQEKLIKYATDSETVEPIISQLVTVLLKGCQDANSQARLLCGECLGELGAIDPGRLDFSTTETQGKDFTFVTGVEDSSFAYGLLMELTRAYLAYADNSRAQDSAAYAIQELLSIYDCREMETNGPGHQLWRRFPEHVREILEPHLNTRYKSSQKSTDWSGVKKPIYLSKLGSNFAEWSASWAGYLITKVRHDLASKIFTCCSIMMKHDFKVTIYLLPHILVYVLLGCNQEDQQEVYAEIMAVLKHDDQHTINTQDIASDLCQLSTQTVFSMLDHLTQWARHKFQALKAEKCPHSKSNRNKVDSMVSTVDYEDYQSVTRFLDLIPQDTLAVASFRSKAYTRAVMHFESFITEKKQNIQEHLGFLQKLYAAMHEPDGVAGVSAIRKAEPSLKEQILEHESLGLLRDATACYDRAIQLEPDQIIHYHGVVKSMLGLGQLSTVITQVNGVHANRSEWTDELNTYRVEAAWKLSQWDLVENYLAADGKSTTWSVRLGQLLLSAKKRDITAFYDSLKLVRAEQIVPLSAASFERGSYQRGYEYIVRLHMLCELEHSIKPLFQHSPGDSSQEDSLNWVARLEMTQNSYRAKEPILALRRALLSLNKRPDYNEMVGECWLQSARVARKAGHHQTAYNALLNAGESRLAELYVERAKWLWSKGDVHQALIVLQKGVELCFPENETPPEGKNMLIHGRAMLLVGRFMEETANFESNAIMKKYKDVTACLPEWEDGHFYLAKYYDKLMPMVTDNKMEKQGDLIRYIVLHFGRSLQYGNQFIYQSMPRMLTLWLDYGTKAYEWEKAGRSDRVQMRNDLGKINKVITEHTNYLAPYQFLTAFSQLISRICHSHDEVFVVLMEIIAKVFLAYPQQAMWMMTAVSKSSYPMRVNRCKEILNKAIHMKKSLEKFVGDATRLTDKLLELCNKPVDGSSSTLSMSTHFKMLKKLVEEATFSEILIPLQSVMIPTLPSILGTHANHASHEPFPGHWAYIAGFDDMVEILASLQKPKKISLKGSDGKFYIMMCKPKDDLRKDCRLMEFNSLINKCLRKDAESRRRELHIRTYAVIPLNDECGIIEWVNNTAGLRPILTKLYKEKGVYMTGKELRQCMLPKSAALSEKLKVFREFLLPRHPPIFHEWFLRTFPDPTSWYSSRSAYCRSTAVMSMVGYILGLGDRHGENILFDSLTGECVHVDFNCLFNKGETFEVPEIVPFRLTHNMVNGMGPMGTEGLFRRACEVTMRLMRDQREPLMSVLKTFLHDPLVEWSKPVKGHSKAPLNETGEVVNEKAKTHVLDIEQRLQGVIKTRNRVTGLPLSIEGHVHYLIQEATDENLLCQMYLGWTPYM
T2 sequence (P08684 whole entry): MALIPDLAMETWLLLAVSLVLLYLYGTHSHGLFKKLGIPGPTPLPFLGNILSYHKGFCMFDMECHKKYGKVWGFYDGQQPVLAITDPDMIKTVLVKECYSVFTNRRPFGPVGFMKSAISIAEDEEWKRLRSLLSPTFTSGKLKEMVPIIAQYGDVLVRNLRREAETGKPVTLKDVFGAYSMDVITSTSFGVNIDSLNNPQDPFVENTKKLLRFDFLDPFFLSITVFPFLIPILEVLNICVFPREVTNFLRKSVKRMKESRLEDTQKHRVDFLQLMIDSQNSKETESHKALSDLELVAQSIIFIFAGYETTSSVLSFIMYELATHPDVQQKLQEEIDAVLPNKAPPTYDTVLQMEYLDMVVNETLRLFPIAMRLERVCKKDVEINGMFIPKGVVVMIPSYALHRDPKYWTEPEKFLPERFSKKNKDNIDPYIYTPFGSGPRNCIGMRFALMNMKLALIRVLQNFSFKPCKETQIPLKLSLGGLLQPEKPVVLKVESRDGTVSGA
CYP2D6, sequence (P10635 whole entry): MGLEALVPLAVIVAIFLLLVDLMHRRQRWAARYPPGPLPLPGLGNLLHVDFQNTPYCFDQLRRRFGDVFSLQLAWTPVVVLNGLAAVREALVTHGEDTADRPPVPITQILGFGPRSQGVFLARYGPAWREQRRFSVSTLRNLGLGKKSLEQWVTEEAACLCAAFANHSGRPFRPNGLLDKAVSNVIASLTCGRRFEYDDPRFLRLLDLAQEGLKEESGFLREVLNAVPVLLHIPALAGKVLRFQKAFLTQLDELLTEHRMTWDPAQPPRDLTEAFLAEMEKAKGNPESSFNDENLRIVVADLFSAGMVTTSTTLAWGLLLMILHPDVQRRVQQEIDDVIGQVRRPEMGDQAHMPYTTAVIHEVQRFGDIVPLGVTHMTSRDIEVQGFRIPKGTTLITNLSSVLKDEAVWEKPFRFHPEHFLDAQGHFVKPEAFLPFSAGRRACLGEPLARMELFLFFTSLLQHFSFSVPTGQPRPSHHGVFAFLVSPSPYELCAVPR
CYP2C9, sequence (P11712 whole entry): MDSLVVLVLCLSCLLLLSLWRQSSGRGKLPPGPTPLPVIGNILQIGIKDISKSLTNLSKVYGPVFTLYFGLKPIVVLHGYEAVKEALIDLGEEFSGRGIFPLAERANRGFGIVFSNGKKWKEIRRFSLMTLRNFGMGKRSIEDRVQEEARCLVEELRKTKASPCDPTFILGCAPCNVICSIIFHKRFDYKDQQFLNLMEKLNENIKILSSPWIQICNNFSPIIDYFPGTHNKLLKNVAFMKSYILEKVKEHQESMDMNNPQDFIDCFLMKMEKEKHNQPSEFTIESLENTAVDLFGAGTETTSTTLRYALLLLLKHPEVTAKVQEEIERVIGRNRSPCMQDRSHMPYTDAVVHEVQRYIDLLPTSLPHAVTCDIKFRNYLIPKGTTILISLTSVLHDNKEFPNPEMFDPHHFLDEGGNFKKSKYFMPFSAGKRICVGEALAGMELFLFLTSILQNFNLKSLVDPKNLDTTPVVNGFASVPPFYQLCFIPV

Row | pIC50 [1] | Papp A→B [2] [×10⁻⁶ cm/s] | Papp B→A [3] [×10⁻⁶ cm/s] | efflux ratio [4] | pIC50 [5] | Kobs [6] [min⁻¹] | solubility [7] [µg/mL] | pIC50 [8] | SMILES | other results
1 | 5.04 | 9.57 | 8.04 | 0.84 | 8.18 | 0.036 | < 2 | 5.65 | C[C@@H]1COCCN1c1cc(N2C3CCC2COC3)nc2[nH]c(-c3ccccn3)nc12 | 
2 |  |  |  |  |  |  |  |  | CO[C@H]1C[C@@H]2CC[C@@H](C)[C@@](O)(O2)C(=O)C(=O)N2CCCC[C@H]2C(=O)O[C@H]([C@H](C)C[C@@H]2CC[C@@H](OCCO)[C@H](OC)C2)CC(=O)[C@H](C)/C=C(\C)[C@@H](O)[C@@H](OC)C(=O)[C@H](C)C[C@H](C)/C=C/C=C/C=C/1C [EVEROLIMUS] | pIC50 [9]: 11.30
3 | 4.68 | 12.7 | 8.24 | 0.66 |  | 0.021 | 250 (≈ 624 µM) | 4.62 | C[C@@H]1COCCN1c1cc(N2CCOC[C@@H]2C)nc2[nH]c(-c3nccs3)nc12 | 
4 | 7.38 |  |  |  | 7.82 |  |  |  | C[C@@H]1COCCN1c1cc(N2CCOC[C@@H]2C)cc2sc(-c3cc[nH]n3)nc12 | 
5 | 4.74 | 15.9 | 40 | 2.52 | 8.11 | 0.004 | 160 (≈ 417 µM) | 5.95 | C[C@@H]1COCCN1c1cc(N2CCOC[C@@H]2C)nc2[nH]c(-c3cc[nH]n3)nc12 | 
6 | 4.80 |  |  |  | 7.47 |  |  |  | C[C@@H]1COCCN1c1cc(N2CCOC[C@@H]2C)nc2[nH]c(-c3cc[nH]n3)cc12 | 
7 |  | 27.4 | 25.4 |  | 8.30 | 0.006 |  |  | C[C@@H]1COCCN1c1nc(N2CCOC[C@@H]2C)nc2sc(-c3cc[nH]n3)nc12 | Activity [10]: Toxic; microsomal CLint at 1 µM [11]: 26 µL/min/mg; Activity [12]: 0.15%; Activity [13]: 253; Activity [14]: Toxic; Activity [15]: Toxic; pIC50 [16]: < 4.30; microsomal CLint at 1 µM [17]: 82 µL/min/mg; pIC50 [18]: < 4.30; Activity [19]: 0.3%; Activity [20]: Toxic; Activity [21]: Toxic; microsomal CLint at 1 µM [22]: 22 µL/min/mg; Activity [23]: 0.15%; Activity [24]: 1.3%; Activity [25]: Toxic; pIC50 [26]: 4.48; microsomal CLint at 1 µM [27]: 92 µL/min/mg
8 | 4.96 |  |  |  | 7.34 |  |  |  | C[C@@H]1COCCN1c1nc(N2CCOC[C@@H]2C)cc2[nH]c(-c3cc[nH]n3)nc12 | 
9 | 5.22 | 25.6 | 15.5 | 0.61 |  | 0.004 | 53 (≈ 124 µM) | 5.15 | C[C@@H]1COCCN1c1cc(N2CCOC[C@@H]2C)nc2[nH]c(-c3cc(O)ccc3F)nc12 | 
10 | 5.31 |  |  |  | 7.80 |  |  |  | C[C@@H]1COCCN1c1nc(N2CCOC[C@@H]2C)nc2[nH]c(-c3cc[nH]n3)nc12 | 
11 | 6.02 |  |  |  | 7.02 |  |  |  | C[C@@H]1COCCN1c1nc(N2CCOC[C@@H]2C)cc2sc(-c3cc[nH]n3)nc12 | 
